Laboratory results from patent US11358959B2, “Benzothiophene and benzothiazole compounds and methods of use thereof” (Araxes Pharma LLC, priority 2017, dated 2022).

The compounds below were run against T1, KRAS G12C 1-169, his-tagged protein, GDP-loaded (Homo sapiens, UniProt P01116, G12C) (assay: Biochemical assay: covalent binding to KRAS G12C by mass spectrometry). Settings: covalently bind to KRAS G12C after a thirty minute incubation period.
T1 construct: KRAS G12C 1-169, his-tagged protein, GDP-loaded; His
T1 sequence (P01116 1-169 isoform P01116-2 G12C): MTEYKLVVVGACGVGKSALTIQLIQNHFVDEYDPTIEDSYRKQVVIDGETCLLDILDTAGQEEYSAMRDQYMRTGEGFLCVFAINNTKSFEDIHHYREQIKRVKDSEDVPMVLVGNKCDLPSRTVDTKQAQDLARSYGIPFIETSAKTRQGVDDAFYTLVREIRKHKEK
Procedure: Test compounds were prepared as 10 mM stock solutions in DMSO (Fisher cat #BP-231-100). KRAS G12C 1-169, his-tagged protein, GDP-loaded was diluted to 2 μM or 0.5 μM in buffer (20 mM Hepes, 150 mM NaCl, 1 mM MgCl2). Compounds were tested for activity as follows:
Compounds were diluted to 50× final test concentration in DMSO in 96-well storage plates. Compound stock solutions were vortexed before use and observed carefully for any sign of precipitation. Dilutions were as follow: • For 100 μM final compound concentration, compounds were diluted to 5000 μM (5 μL 10 mM compound stock+5 μL DMSO and mixed well by pipetting. • For 30 […] final compound concentration, compounds were diluted to 1500 μM (3 μL 10 mM compound stock+17 μL DMSO) and mixed well by pipetting. • For 10 μM final compound concentration, compounds were diluted to 500 μM (2 μL 10 mM compound stock+38 μL DMSO) and mixed well by pipetting. 49 μL of the stock protein solution was added to each well of a 96-well PCR plate (Fisher cat #1423027). 1 μl of the diluted 50× compounds were added to appropriate wells in the PCR plate using 12-channel pipettor. Reactions were mixed carefully and thoroughly by pipetting up/down with a 200 μL multi-channel pipettor. The plate was sealed well with aluminum plate seal, and stored in drawer at room temperature for 10 minutes, 30 minutes, 2 hours or 24 hours. 5 μL of 2% formic acid (Fisher cat #A117) in de-ionized H2O was then added to each well followed by mixing with a pipette. The plate was then resealed with aluminum seal and stored on dry ice until analyzed as described below.
The above described assays were analyzed by mass spectrometry according to one of the following two procedures:
The MS instrument is set to positive polarity, 2 GHz resolution, and low mass (1700) mode and allowed to equilibrate for 30 minutes. The instrument is then calibrated, switched to acquisition mode and the appropriate method loaded.
After another 30 minute equilibration time, a blank batch (i.e., buffer) is run to ensure equipment is operating properly. The samples are thawed at 37° C. for 10 minutes, briefly centrifuged, and transfer to the bench top. Wells A1 and H12 are spiked with 1 μL 500 μM internal standard peptide, and the plates centrifuged at 2000×g for 5 minutes. The method is then run and masses of each individual well recorded.
The masses (for which integration data is desired) for each well are pasted into the platemap and exported from the analysis. Masses for the internal standards are exported as well. The data at 50 ppm is extracted for the +19 charge state, and identity of well A1 is assigned using the internal standard spike and integrated. Peak data is exported as a TOF list and the above steps are repeated individually, for the +20, 21, 22, 23, 24, and 25 charge states.
The masses and peak intensities of KRAS G12C protein species were measured using a Dionex RSLCnano system (Thermo Scientific) connected to a Q Exactive Plus mass spectrometer (Thermo Scientific).
[…] of sample was each loaded onto a Aeris™ 3.6 μm WIDEPORE C4 200 Å, LC Column 50×2.1 mm column maintained at 40° C. at a flow rate of 600 μL/min with 20% Solvent A (0.1% formic acid in H2O) and 80% Solvent B (0.1% formic acid in acetonitrile). The liquid chromatography conditions were 20% solvent B for 1 minute, 20% to 60% solvent B for 1.5 minutes, 60% to 90% solvent for 0.5 minute, 90% solvent B for 0.2 minute, 90% to 20% solvent B for 0.2 minute, and then equilibrated for 1.6 minute before the following sample injection. The flow rate was maintained at 600 μL/min throughout the sample analysis.
The mass spectrometer was operated in profile mode at a resolution of 17500, 5 microscans, using 50 msec max injection time and an AGC target of 1×10^6, and a full mass range from 800-1850 m/z was recorded. The HCD trapping gas was optimized for maximum sensitivity for intact proteins. […]
With `C=CC(=O)N1CC(c2ccc3nc(-c4c(C)ccc5[nH]ncc45)sc3c2)C1` [Compound 3, 1-(3-(2-(5-methyl-1H-indazol-4-yl)benzo[d]thiazol-6-yl)azetidin-1-yl)prop-2-en-1-one] the Binding % was “+ (+ indicates binding activity up to 10%)”. In the case of `C=CC(=O)N1CC(c2ccc3nc(-c4cc(O)cc5ccccc45)sc3c2)C1` [Compound 4, 1-(3-(2-(3-hydroxynaphthalen-1-yl)benzo[d]thiazol-6-yl)azetidin-1-yl)prop-2-en-1-on], the Binding % is reported as “+++ (+++ indicates binding activity greater than 50%)”. For `C=CC(=O)N1CC(c2ccc3nc(-c4c(C)ccc5[nH]ncc45)oc3c2)C1` [Compound 6, 1-(3-(2-(5-methyl-1H-indazol-4-yl)benzo[d]oxazol-6-yl)azetidin-1-yl)prop-2-en-1-one], the Binding % was “++ (++ indicates binding activity from 10 to 50%)”. In the case of `C=CC(=O)N1CC(c2ccc3cc(-c4cc(O)cc5ccccc45)sc3c2)C1` [Compound 1, 1-(3-(2-(3-hydroxynaphthalen-1-yl)benzo[b]thiophen-6-yl)azetidin-1-yl)prop-2-en-1-one], the Binding % is reported as “+++ (+++ indicates binding activity greater than 50%)”. With `C=CC(=O)N1CC(c2ccc3nc(-c4cc(O)cc5ccccc45)oc3c2)C1` [Compound 5, 1-(3-(2-(3-hydroxynaphthalen-1-yl)benzo[d]oxazol-6-yl)azetidin-1-yl)prop-2-en-1-one] the Binding % was “+++ (+++ indicates binding activity greater than 50%)”. For `C=CC(=O)N1CC(c2ccc3cc(-c4c(C)ccc5[nH]ncc45)sc3c2)C1` [Compound 2, 1-(3-(2-(5-methyl-1H-indazol-4-yl)benzo[b]thiophen-6-yl)azetidin-1-yl)prop-2-en-1-one], the Binding % was “++ (++ indicates binding activity from 10 to 50%)”.
